Test results: patent publication US20260028365A1 (BIOGEN MA INC., priority 2022, published 2026)

Key:
[1] = target: JH2 domain of human Tyk2 (Homo sapiens (Human), UniProt P29597); experiment: JH2 Biochemical Assay (TR-FRET probe displacement); type: binding; conditions: JH2 domain of human Tyk2, TR-FRET probe displacement
[2] = target: Tyk2 (Homo sapiens (Human), UniProt P29597); experiment: pSTAT4 Cell Assay (MSD, NK92 cells); type: cell-based; conditions: MSD
Sequence of Tyk2 (P29597 whole entry): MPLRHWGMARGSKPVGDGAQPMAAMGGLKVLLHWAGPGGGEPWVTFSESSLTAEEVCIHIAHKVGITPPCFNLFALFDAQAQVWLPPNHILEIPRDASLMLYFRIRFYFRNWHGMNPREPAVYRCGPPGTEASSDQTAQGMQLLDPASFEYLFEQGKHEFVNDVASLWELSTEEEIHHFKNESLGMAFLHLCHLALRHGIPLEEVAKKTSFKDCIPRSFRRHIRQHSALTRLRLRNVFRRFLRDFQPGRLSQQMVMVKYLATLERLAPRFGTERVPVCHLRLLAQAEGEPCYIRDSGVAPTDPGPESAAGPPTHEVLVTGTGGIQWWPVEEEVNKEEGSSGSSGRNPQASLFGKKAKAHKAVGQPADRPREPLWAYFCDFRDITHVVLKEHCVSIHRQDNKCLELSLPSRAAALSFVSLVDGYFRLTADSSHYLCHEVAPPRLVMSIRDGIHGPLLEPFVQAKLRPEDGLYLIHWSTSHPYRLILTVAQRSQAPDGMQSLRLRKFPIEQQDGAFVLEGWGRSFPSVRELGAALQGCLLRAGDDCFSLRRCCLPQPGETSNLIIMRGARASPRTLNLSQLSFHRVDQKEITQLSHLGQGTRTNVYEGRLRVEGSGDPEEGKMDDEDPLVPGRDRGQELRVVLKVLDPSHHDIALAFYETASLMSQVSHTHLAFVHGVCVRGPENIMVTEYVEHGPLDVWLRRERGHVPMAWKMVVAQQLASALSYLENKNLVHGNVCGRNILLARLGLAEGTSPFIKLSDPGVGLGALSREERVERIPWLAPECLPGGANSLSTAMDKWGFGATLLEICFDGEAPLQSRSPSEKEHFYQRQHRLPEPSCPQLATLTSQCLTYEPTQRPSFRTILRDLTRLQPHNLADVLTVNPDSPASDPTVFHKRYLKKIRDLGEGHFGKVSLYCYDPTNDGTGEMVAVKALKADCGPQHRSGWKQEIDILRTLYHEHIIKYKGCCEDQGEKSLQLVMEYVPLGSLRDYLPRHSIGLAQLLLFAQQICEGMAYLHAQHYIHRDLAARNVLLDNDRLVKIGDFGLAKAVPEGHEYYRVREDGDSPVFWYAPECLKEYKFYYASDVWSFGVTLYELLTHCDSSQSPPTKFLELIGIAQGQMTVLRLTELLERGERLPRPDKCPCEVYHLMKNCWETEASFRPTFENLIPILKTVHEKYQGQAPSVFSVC

Sequence of JH2 domain of human Tyk2 (P29597 575-876): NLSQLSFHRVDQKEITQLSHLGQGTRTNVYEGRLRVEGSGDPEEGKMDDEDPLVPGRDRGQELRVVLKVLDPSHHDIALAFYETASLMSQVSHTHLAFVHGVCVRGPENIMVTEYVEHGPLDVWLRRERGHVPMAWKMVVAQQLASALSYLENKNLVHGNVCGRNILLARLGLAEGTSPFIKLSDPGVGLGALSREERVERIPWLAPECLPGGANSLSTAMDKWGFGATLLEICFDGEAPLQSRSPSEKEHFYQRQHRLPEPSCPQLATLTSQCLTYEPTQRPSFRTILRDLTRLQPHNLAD

SMILES	IC50 [1]	IC50 [2]
CC(=O)Nc1cc(Nc2cc(C)nc(C(C)(F)F)n2)c(OCC2CCC(=O)O2)cn1 (stereo not drawn) [Example 499, N-(4-((2-(1,1-difluoroethyl)-6-methylpyrimidin-4-yl)amino)-5-((5-oxotetrahydrofuran-2-yl)methoxy)pyridin-2-yl)acetamide]	≤ 0.01 µM	0.01 to 0.1 µM
CC(=O)Nc1cc(Nc2cc(C)nc(C(C)(F)F)n2)c(OC[C@@H]2CCC(=O)N2)cn1 [Example 500, (S)-N-(4-((2-(1,1-difluoroethyl)-6-methylpyrimidin-4-yl)amino)-5-((5-oxopyrrolidin-2-yl)methoxy)pyridin-2-yl)acetamide]	≤ 0.01 µM	0.1 to 1 µM
CC(=O)Nc1cc(Nc2cc(C)nc(C(C)(F)F)n2)c(OCCC2CCCN2C)cn1 (stereo not drawn) [Example 501, N-(4-((2-(1,1-difluoroethyl)-6-methylpyrimidin-4-yl)amino)-5-(2-(1-methylpyrrolidin-2-yl)ethoxy)pyridin-2-yl)acetamide]	≤ 0.01 µM	0.1 to 1 µM
CC(=O)Nc1cc(Nc2cc(C)nc(C(C)(F)F)n2)c(OC[C@H]2CCC(=O)N2)cn1 [Example 502, (R)-N-(4-((2-(1,1-difluoroethyl)-6-methylpyrimidin-4-yl)amino)-5-((5-oxopyrrolidin-2-yl)methoxy)pyridin-2-yl)acetamide]	≤ 0.01 µM	0.1 to 1 µM
CC(=O)Nc1cc(Nc2cc(C)nc(C(C)(F)F)n2)c(OCC2CN(C(C)C)CCO2)cn1 (stereo not drawn) [Example 503, N-(4-((2-(1,1-difluoroethyl)-6-methylpyrimidin-4-yl)amino)-5-((4-isopropylmorpholin-2-yl)methoxy)pyridin-2-yl)acetamide]	≤ 0.01 µM	0.01 to 0.1 µM
CC(=O)Nc1cc(Nc2cc(C)nc(C(C)(F)F)n2)c(OCc2cnoc2)cn1 [Example 504, N-(4-((2-(1,1-difluoroethyl)-6-methylpyrimidin-4-yl)amino)-5-(isoxazol-4-ylmethoxy)pyridin-2-yl)acetamide]	≤ 0.01 µM	0.01 to 0.1 µM
CC(=O)Nc1cc(Nc2cc(C)nc(C(C)(F)F)n2)c(OCc2cocn2)cn1 [Example 505, N-(4-((2-(1,1-difluoroethyl)-6-methylpyrimidin-4-yl)amino)-5-(oxazol-4-ylmethoxy)pyridin-2-yl)acetamide]	≤ 0.01 µM	0.01 to 0.1 µM
CC(=O)Nc1cc(Nc2cc(C)nc(C(C)(F)F)n2)c(OCC2CN(C)C2)cn1 [Example 506, N-(4-((2-(1,1-difluoroethyl)-6-methylpyrimidin-4-yl)amino)-5-((1-methylazetidin-3-yl)methoxy)pyridin-2-yl)acetamide]	≤ 0.01 µM	0.1 to 1 µM
CCOCCOc1cnc(NC(C)=O)cc1Nc1cc(C)nc(C(C)(F)F)n1 [Example 507, N-(4-((2-(1,1-difluoroethyl)-6-methylpyrimidin-4-yl)amino)-5-(2-ethoxyethoxy)pyridin-2-yl)acetamide]	≤ 0.01 µM	≤ 0.01 µM
CC(=O)Nc1cc(Nc2cc(C)nc(C(C)(F)F)n2)c(OCc2cnn(C)c2)cn1 [Example 508, N-(4-((2-(1,1-difluoroethyl)-6-methylpyrimidin-4-yl)amino)-5-((1-methyl-1H-pyrazol-4-yl)methoxy)pyridin-2-yl)acetamide]	≤ 0.01 µM	0.01 to 0.1 µM
CCn1cc(COc2cnc(NC(C)=O)cc2Nc2cc(C)nc(C(C)(F)F)n2)cn1 [Example 509, N-(4-((2-(1,1-difluoroethyl)-6-methylpyrimidin-4-yl)amino)-5-((1-ethyl-1H-pyrazol-4-yl)methoxy)pyridin-2-yl)acetamide]	≤ 0.01 µM	0.01 to 0.1 µM
CC(=O)Nc1cc(Nc2cc(C)nc(C(C)(F)F)n2)c(OCC2CC(=O)N(C(C)C)C2)cn1 (stereo not drawn) [Example 510, N-(4-((2-(1,1-difluoroethyl)-6-methylpyrimidin-4-yl)amino)-5-((1-isopropyl-5-oxopyrrolidin-3-yl)methoxy)pyridin-2-yl)acetamide]	≤ 0.01 µM	0.1 to 1 µM
CC(=O)Nc1cc(Nc2cc(C)nc(C(C)(F)F)n2)c(OCC2CC(=O)N(C)C2)cn1 (stereo not drawn) [Example 511, N-(4-((2-(1,1-difluoroethyl)-6-methylpyrimidin-4-yl)amino)-5-((1-methyl-5-oxopyrrolidin-3-yl)methoxy)pyridin-2-yl)acetamide]	0.01 to 0.1 µM	0.1 to 1 µM
COc1nn(C)cc1COc1cnc(NC(C)=O)cc1Nc1cc(C)nc(C(C)(F)F)n1 [Example 512, N-(4-((2-(1,1-difluoroethyl)-6-methylpyrimidin-4-yl)amino)-5-((3-methoxy-1-methyl-1H-pyrazol-4-yl)methoxy)pyridin-2-yl)acetamide]	0.1 to 1 µM	0.1 to 1 µM
CO[C@H]1CC[C@@H](Oc2cnc(NC(C)=O)cc2Nc2cc(C)nc(C(C)(F)F)n2)C1 [Example 513, N-(4-((2-(1,1-difluoroethyl)-6-methylpyrimidin-4-yl)amino)-5-(((1R,3S)-3-methoxycyclopentyl)oxy)pyridin-2-yl)acetamide]	≤ 0.01 µM	0.01 to 0.1 µM
CC(=O)Nc1cc(Nc2cc(C)nc(C(C)(F)F)n2)c(OC[C@]23C[C@](C)(CO2)C3)cn1 [Example 514, N-(4-((2-(1,1-difluoroethyl)-6-methylpyrimidin-4-yl)amino)-5-(((1s,4s)-4-methyl-2-oxabicyclo[2.1.1]hexan-1-yl)methoxy)pyridin-2-yl)acetamide]	≤ 0.01 µM	≤ 0.01 µM
CCOc1cnc(NC(C)=O)cc1Nc1cc(C)nc(C(F)(F)CC)n1 [Example 516, N-(4-((2-(1,1-difluoropropyl)-6-methylpyrimidin-4-yl)amino)-5-ethoxypyridin-2-yl)acetamide]	≤ 0.01 µM	0.1 to 1 µM
CCOc1cnc(NC(C)=O)cc1Nc1cc(O[C@H]2C[C@H](OC)C2)nc(C)n1 [Example 519, N-(5-ethoxy-4-((6-((1r,3r)-3-methoxycyclobutoxy)-2-methylpyrimidin-4-yl)amino)pyridin-2-yl)acetamide]	0.1 to 1 µM	0.1 to 1 µM
CNC(=O)Nc1cc(Nc2cc(C)nc(C(C)(F)F)n2)c(-c2ccc(C#N)cn2)cn1 [Example 520, 1-(5-cyano-4′-((2-(1,1-difluoroethyl)-6-methylpyrimidin-4-yl)amino)-[2,3′-bipyridin]-6′-yl)-3-methylurea]	≤ 0.01 µM	≤ 0.01 µM
COCCOc1ccc(-c2cnc(NC(C)=O)cc2Nc2ccnc(C(C)(F)F)n2)nc1 [Example 523, N-(4′-((2-(1,1-difluoroethyl)pyrimidin-4-yl)amino)-5-(2-methoxyethoxy)-[2,3′-bipyridin]-6′-yl)acetamide]	≤ 0.01 µM	≤ 0.01 µM
CC(=O)Nc1cc(Nc2cc(C)nc(C(C)(F)F)n2)c(-c2ccc(COC(F)F)cn2)cn1 [Example 524, N-(4′-((2-(1,1-difluoroethyl)-6-methylpyrimidin-4-yl)amino)-5-((difluoromethoxy)methyl)-[2,3′-bipyridin]-6′-yl)acetamide]	≤ 0.01 µM	≤ 0.01 µM
CC(=O)Nc1cc(Nc2cccc(C(C)(F)F)n2)c(-c2ccc(C#N)cn2)cn1 [Example 525, N-(5-cyanO4′-((6-(1,1-difluoroethyl)pyridin-2-yl)amino)-[2,3′-bipyridin]-6′-yl)acetamide]	≤ 0.01 µM	0.01 to 0.1 µM
COc1ccc(-c2cnc(NC(C)=O)cc2Nc2cccc(C(C)(F)F)n2)nn1 [Example 526, N-(4-((6-(1,1-difluoroethyl)pyridin-2-yl)amino)-5-(6-methoxypyridazin-3-yl)pyridin-2-yl)acetamide]	≤ 0.01 µM	0.01 to 0.1 µM
[2H]C([2H])([2H])C(=O)Nc1cc(Nc2ccnc(C(C)(F)F)n2)c(-c2ccc(OC)nn2)cn1 [Example 527, N-(4-((2-(1,1-difluoroethyl)pyrimidin-4-yl)amino)-5-(6-methoxypyridazin-3-yl)pyridin-2-yl)acetamide-2,2,2-d3]	≤ 0.01 µM	≤ 0.01 µM
CC(=O)Nc1cc(Nc2ccnc(C(C)(F)F)n2)c(-c2cc3n(n2)CCOC3)cn1 [Example 529, N-(4-((2-(1,1-difluoroethyl)pyrimidin-4-yl)amino)-5-(6,7-dihydrO4H-pyrazolo[5,1-c][1,4]oxazin-2-yl)pyridin-2-yl)acetamide]	≤ 0.01 µM	≤ 0.01 µM
CC(=O)Nc1cc(Nc2cc(C)nc(C(C)(C)F)n2)c(-c2cc3n(n2)CCOC3)cn1 [Example 530, N-(5-(6,7-dihydrO4H-pyrazolo[5,1-c][1,4]oxazin-2-yl)-4-((2-(2-fluoropropan-2-yl)-6-methylpyrimidin-4-yl)amino)pyridin-2-yl)acetamide]	≤ 0.01 µM	≤ 0.01 µM
CC(=O)Nc1cc(Nc2cc(C)nc(C(C)(C)F)n2)c(-c2cn3c(n2)COCC3)cn1 [Example 531, N-(5-(5,6-dihydrO8H-imidazo[2,1-c][1,4]oxazin-2-yl)-4-((2-(2-fluoropropan-2-yl)-6-methylpyrimidin-4-yl)amino)pyridin-2-yl)acetamide]	≤ 0.01 µM	≤ 0.01 µM
CC(=O)Nc1cc(Nc2cc(C)nc(C(C)(C)F)n2)c(-c2cn3cnnc3cn2)cn1 [Example 532, N-(5-([1,2,4]triazolo[4,3-a]pyrazin-6-yl)-4-((2-(2-fluoropropan-2-yl)-6-methylpyrimidin-4-yl)amino)pyridin-2-yl)acetamide]	≤ 0.01 µM	0.1 to 1 µM
CC(=O)Nc1cc(Nc2cc(C)nc(C(C)(C)F)n2)c(-c2ccn3ccnc3n2)cn1 [Example 533, N-(4-((2-(2-fluoropropan-2-yl)-6-methylpyrimidin-4-yl)amino)-5-(imidazo[1,2-a]pyrimidin-7-yl)pyridin-2-yl)acetamide]	≤ 0.01 µM	≤ 0.01 µM
CC(=O)Nc1cc(Nc2cc(C)nc(C(C)(F)F)n2)c(-c2cnn3c2OCCC3)cn1 [Example 535, N-(4-((2-(1,1-difluoroethyl)-6-methylpyrimidin-4-yl)amino)-5-(6,7-dihydrO5H-pyrazolo[5,1-b][1,3]oxazin-3-yl)pyridin-2-yl)acetamide]	0.01 to 0.1 µM	≥ 1 µM
